Assay type in all cases: binding
In test [1] the target is Recombinant human integrin αvβ1 (Homo sapiens (Human), UniProt P05556+P06756). Put plainly: Solid Phase Receptor Assay (SPRA) for αvβ1 function. Particulars: fibronectin-coated plate. How it is done: 2. Solid Phase Receptor Assay (SPRA) for αvβ1 Function
Purified human fibronectin (R&D Systems, 1918-FN) diluted to 5 μg/mL in TBS+ buffer (25 mM Tris pH 7.4, 137 mM NaCl, 2.7 mM KCl, 1 mM CaCl2, 1 mM MgCl2, 1 mM MnCl2) was added to wells (50 μL/well) of a 96-well half-well transparent microtiter plate (Greiner 675061) and incubated overnight at 4° C. Wells were washed 3 times with 150 μL TBS+ and 150 μL of blocking buffer (TBS+ with 1% bovine serum albumin, Sigma A7906) were added. The plate was incubated for 1 hr at 37° C. and then washed 3× with TBS+ buffer. Recombinant human integrin αvβ1 (R&D Systems. 6579-AV) was diluted to 2.0 μg/mL in TBS+/0.1% bovine serum albumin. Compounds were diluted 1:100 into the integrin solution and 50 μL added to empty wells of the washed fibronectin-coated plate according to a standard template with each sample repeated in triplicate. After incubation for two hours at room temperature, the plate was washed 3× with 150 μL of TBS+ buffer. To each well, 50 μL of biotinylated anti-αv antibody (R&D Systems, BAF1219) at 1 μg/mL in TBS+/0.1% BSA were added and the plate covered and incubated for 1 hr at room temperature. After washing the plate 3× with 150 μL of TBS+ buffer, 50 μL of streptavidin-conjugated horseradish peroxidase (R&D Systems, DY998) diluted in TBS+ blocking buffer were added to the wells and the plate incubated for 20 min at room temperature. The plate was washed 3× with TBS+ buffer followed by 50 μL of TMB substrate (Sigma, T4444) added to each well and the plate incubated for 20 min at room temperature. Plates were read by colorimetric detection at 650 nm wavelength using a Tecan Safire II plate reader. Concentration-response curves were constructed by non-linear regression (best fit) analysis, and IC50 values were calculated for each compound.

The target in test [2] is Recombinant human integrin αvβ5 (Homo sapiens (Human), UniProt P06756+P18084). Put plainly: Solid Phase Receptor Assay (SPRA) for αvβ5 function. To be noted: vitronectin-coated plate. As to the method: 4. Solid Phase Receptor Assay (SPRA) for αvβ5 Function
Recombinant human integrin αvβ5, sequence (P06756 31-992): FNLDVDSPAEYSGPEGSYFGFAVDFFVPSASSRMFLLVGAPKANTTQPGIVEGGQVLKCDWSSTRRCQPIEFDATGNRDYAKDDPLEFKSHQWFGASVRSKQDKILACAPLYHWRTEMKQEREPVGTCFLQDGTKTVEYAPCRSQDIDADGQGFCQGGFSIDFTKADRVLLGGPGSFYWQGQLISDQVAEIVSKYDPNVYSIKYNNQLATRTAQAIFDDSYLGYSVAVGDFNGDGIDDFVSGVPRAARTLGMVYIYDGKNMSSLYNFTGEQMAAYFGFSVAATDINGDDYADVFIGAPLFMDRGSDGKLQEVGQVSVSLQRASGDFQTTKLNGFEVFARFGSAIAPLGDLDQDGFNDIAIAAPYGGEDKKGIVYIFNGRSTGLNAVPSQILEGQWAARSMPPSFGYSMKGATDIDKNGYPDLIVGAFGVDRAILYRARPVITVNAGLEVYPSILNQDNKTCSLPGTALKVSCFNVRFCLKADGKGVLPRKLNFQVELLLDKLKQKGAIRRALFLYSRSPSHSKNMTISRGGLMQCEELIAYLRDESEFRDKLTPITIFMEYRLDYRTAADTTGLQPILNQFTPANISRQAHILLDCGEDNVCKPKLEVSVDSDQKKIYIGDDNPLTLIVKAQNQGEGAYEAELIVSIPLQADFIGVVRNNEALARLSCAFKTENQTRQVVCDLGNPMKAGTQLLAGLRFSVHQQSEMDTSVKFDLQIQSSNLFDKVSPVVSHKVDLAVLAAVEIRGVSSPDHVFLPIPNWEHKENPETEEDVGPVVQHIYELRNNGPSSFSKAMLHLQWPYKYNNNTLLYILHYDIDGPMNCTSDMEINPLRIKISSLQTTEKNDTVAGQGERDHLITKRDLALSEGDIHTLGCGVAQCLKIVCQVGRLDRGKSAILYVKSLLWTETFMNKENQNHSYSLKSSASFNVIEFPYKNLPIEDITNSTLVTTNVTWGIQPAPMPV
Recombinant human integrin αvβ5, sequence (P18084 24-719): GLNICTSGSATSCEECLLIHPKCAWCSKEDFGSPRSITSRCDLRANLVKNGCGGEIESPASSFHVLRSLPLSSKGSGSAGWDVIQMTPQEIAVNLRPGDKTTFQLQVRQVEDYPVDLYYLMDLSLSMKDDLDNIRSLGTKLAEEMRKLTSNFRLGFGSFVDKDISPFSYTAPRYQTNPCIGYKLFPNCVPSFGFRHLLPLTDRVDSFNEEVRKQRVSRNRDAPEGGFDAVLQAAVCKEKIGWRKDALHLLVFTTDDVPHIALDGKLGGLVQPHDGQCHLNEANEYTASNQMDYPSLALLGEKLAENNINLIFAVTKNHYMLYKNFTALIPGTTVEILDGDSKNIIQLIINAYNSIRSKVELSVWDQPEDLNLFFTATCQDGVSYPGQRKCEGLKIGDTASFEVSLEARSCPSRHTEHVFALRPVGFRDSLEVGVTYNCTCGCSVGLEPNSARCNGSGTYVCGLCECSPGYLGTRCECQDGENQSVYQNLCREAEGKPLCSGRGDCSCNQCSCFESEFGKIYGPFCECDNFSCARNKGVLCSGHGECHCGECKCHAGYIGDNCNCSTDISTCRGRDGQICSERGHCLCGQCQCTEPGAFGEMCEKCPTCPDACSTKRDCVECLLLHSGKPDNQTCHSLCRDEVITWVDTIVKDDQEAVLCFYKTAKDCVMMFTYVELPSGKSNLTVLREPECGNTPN
Recombinant human vitronectin (R&D Systems, 2308-VN) at 0.25 μg/mL in TBS+ buffer (25 mM Tris pH 7.4, 137 mM NaCl, 2.7 mM KCl, 1 mM CaCl2, 1 mM MgCl2, 1 mM MnCl2) was added to wells (50 μL/well) of a 96-well half-well transparent microtiter plate (Greiner 675061) and incubated overnight at 4° C. Wells were washed 3 times with 150 μL TBS+ and 150 μL of blocking buffer (TBS+ with 1% bovine serum albumin, Sigma A7906) were added. The plate was incubated for 1 hr at 37° C. and then washed 3× with TBS+ buffer. Recombinant human integrin αvβ5 (R&D Systems, 2528-AV) was diluted to 0.1 μg/mL in TBS+/0.1% bovine serum albumin. Compounds were diluted 1:100 into the integrin solution and then 50 μL added to empty wells of the washed vitronectin-coated plate according to a standard template with each sample repeated in triplicate. After incubation for two hours at room temperature, the plate was washed 3× with 150 μL of TBS+ buffer. To each well, 50 μl of biotinylated anti-αv antibody (R&D Systems, BAF1219) at 0.5 μg/mL in TBS+/0.1% BSA at 0.5 μg/mL were added and the plate covered and incubated for 1 hr at room temperature. After washing the plate 3× with 150 μL of TBS+ buffer, 50 μL of streptavidin-conjugated horseradish peroxidase (R&D Systems DY998) diluted in TBS+ blocking buffer were added to the wells and the plate incubated for 20 min at room temperature. The plate was washed 3× with TBS+ buffer followed by 50 μL of TMB substrate (Sigma T4444) added to each well and the plate incubated for 20 min at room temperature. Plates were read by colorimetric detection at 650 nm wavelength using a Tecan Safire II plate reader. Concentration-response curves were constructed by non-linear regression (best fit) analysis, and IC50 values were calculated for each compound.

Test [3] has as its target Recombinant human integrin α5β1 (Homo sapiens (Human), UniProt P05556+P08648). Put plainly: Solid Phase Receptor Assay (SPRA) for α5β1 function. To be noted: fibronectin-coated plate. How it is done:
1. Solid Phase Receptor Assay (SPRA) for α5β1 Function
Purified human fibronectin (R&D Systems, 1918-FN) diluted to 2 μg/mL in TBS+ buffer (25 mM Tris pH 7.4, 137 mM NaCl, 2.7 mM KCl, 1 mM CaCl2, 1 mM MgCl2, 1 mM MnCl2) was added to wells (50 μL/well) of a 96-well half-well transparent microtiter plate (Greiner 675061) and incubated overnight at 4° C. Wells were washed 3 times with 150 μL TBS+ and 150 μL of blocking buffer (TBS+ with 1% bovine serum albumin, Sigma A7906) were added. The plate was incubated for 1 hr at 37° C. and then washed 3× with TBS+ buffer. Recombinant human integrin α5β1 (R&D Systems, 3230-A5) was diluted to 0.1 μg/mL in TBS+/0.1% bovine serum albumin. Compounds were diluted 1:100 into the integrin solution and then 50 μL added to empty wells of the washed fibronectin-coated plate according to a standard template with each sample repeated in triplicate. After incubation for two hours at room temperature, the plate was washed 3× with 150 μL of TBS+ buffer. To each well, 50 μl of biotinylated anti-α5 antibody (R&D Systems, BAF1864) at 0.5 μg/mL in TBS+/0.1% BSA were added and the plate covered and incubated for 1 hr at room temperature. After washing the plate 3× with 150 μL of TBS+ buffer, 50 μL of streptavidin-conjugated horseradish peroxidase (R&D Systems, DY998) diluted in TBS+ blocking buffer were added to the wells and the plate incubated for 20 min at room temperature. The plate was washed 3× with TBS+ buffer followed by 50 μL of room temperature TMB substrate (Sigma, T444) added to each well and the plate incubated for 20 min at room temperature. Plates were read by colorimetric detection at 650 nm wavelength using a Tecan Safire II plate reader. Concentration-response curves were constructed by non-linear regression (best fit) analysis, and IC50 values were calculated for each compound.

Recombinant human integrin αvβ1, sequence (P06756 31-992): as the sequence (P06756 31-992) above
Recombinant human integrin αvβ1, sequence (P05556 21-728): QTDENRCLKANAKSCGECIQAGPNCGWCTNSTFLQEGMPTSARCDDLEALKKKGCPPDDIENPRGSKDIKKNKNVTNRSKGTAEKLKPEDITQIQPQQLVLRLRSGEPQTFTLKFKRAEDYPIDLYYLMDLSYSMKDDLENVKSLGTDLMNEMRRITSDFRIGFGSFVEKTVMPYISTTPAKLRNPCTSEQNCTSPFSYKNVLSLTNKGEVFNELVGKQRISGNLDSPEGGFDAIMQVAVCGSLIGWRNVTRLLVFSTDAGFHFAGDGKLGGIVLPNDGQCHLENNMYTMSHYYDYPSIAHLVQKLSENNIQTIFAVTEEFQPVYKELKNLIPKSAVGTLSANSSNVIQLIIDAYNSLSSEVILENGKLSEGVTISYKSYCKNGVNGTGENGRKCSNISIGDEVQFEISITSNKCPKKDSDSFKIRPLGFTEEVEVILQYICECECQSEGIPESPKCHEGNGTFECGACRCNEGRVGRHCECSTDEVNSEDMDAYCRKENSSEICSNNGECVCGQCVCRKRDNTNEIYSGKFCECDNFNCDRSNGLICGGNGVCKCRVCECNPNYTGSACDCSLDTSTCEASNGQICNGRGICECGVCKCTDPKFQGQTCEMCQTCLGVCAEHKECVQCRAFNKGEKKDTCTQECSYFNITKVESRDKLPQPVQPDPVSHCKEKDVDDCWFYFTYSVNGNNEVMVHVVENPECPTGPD
Recombinant human integrin α5β1, sequence (P08648 42-995): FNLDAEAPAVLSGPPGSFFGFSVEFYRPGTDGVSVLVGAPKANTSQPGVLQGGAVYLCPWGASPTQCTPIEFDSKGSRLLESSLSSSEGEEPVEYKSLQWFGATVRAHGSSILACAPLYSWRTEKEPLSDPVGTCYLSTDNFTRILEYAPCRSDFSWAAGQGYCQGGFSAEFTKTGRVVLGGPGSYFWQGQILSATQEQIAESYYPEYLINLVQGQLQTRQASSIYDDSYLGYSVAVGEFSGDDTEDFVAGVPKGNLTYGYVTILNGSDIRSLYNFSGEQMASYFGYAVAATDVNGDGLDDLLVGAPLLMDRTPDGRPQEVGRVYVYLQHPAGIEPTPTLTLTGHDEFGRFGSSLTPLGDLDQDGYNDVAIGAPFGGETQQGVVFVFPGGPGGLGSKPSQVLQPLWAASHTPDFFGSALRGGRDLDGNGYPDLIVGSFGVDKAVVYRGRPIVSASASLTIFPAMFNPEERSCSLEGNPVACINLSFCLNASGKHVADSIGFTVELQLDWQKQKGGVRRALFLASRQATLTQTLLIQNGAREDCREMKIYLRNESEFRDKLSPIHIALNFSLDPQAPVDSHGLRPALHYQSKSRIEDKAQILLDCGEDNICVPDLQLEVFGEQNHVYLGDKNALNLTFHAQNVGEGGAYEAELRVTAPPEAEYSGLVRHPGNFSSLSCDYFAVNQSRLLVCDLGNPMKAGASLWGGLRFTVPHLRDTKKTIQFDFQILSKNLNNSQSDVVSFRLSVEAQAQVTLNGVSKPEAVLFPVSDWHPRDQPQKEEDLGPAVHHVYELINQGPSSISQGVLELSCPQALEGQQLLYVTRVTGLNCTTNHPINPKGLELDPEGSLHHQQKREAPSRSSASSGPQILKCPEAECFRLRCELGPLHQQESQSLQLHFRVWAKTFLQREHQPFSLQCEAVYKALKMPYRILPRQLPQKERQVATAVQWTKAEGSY
Recombinant human integrin α5β1, sequence (P05556 21-728): as the sequence (P05556 21-728) above

The IC50 is the concentration that inhibits the measured activity by half. Turning to `Cc1cc(Cl)cc([C@@H](CC(=O)O)NC(=O)CNC(=O)c2cc(O)cc(NC3=NCC(O)CN3)c2)c1O` (stereo partly drawn) [Example C10, reference compound], the IC50 in test [1] came to 14 ± 8 nM; in test [2] it was 2 nM; in test [3] it was 18 nM.
Turning to `Cc1ccc(O)c(C(CC(=O)O)NC(=O)CNC(=O)c2cccc(NC(=N)N)c2)c1` (stereo not drawn) [Example C8, reference compound], the IC50 turned out to be 13 nM in test [1], 5 nM in test [2] and 38 nM in test [3].
The like results for `O=C(O)C[C@H](NC(=O)CNC(=O)c1cc(O)cc(NC2=NCC(O)CN2)c1)c1cc(F)cc(Br)c1` (stereo partly drawn) [Example 13, (3S)-3-[3-bromo-5-fluoro-phenyl)-3-(2-(3-hydroxy-5-((5-hydroxy-1,4,5,6-tetrahydropyrimidin-2-yl)amino)benzamido)acetamido)propanoic acid] were, in that order, 1 nM, 0.1 nM and 0.6 nM.
The like results for `O=C(O)C[C@H](NC(=O)CNC(=O)c1cc(O)cc(NC2=NCC(O)CN2)c1)c1cc(Cl)cc(C(F)(F)F)c1` (stereo partly drawn) [Example 5, (3S)-3-[3-chloro-5-(trifluoromethyl)phenyl)-3-(2-(3-hydroxy-5-((5-hydroxy-1,4,5,6-tetrahydropyrimidin-2-yl)amino)benzamido)acetamido]propanoic acid] were, in that order, 2 nM, 0.5 nM and 0.8 nM.
The like results for `O=C(O)C[C@H](NC(=O)CNC(=O)c1cc(O)cc(NC2=NCC(O)CN2)c1)c1cc(Cl)cc(OC(F)(F)F)c1` (stereo partly drawn) [Example 16, (3S)-3-[3-chloro-5-(trifluoromethoxy)phenyl)-3-(2-(3-hydroxy-5-((5-hydroxy-1,4,5,6-tetrahydropyrimidin-2-yl)amino)benzamido)acetamido)propanoic acid] were, in that order, 3 ± 2 nM, 0.6 nM and 1 ± 0.4 nM.
As to `O=C(O)C[C@H](NC(=O)CNC(=O)c1cncc(NC2=NCC(O)CN2)c1)c1cc(Br)cc(C(F)(F)F)c1` (stereo partly drawn) [Example 9, (3S)-3-[3-bromo-5-(trifluoromethyl)phenyl]-3-[[2-[[5-[(5-hydroxy-1,4,5,6-tetrahydropyrimidin-2-yl)amino]pyridine-3-carbonyl]amino]acetyl]amino]propanoic acid], the IC50 in test [1] turned out to be 1 nM; in test [2] it was 0.3 nM; in test [3], 0.3 nM.
For `O=C(O)C[C@H](NC(=O)CNC(=O)c1cc(O)cc(NC2=NCC(O)CN2)c1)c1cc(Br)cc(Br)c1` (stereo partly drawn) [Example 1, (3S)-3-(3,5-dibromophenyl)-3-(2-(3-hydroxy-5-((5-hydroxy-1,4,5,6-tetrahydropyrimidin-2-yl)amino)benzamido)acetamido)propanoic acid], the IC50 in test [1] came to 2 ± 2 nM; in test [2] it was 0.2 nM; in test [3], 1 ± 0.5 nM.
The like results for `O=C(O)C[C@H](NC(=O)CNC(=O)c1cc(O)cc(NC2=NCC(O)CN2)c1)c1cc(Br)cc(C(F)F)c1` (stereo partly drawn) [Example 4, (3S)-3-[3-bromo-5-(difluoromethyl)phenyl)-3-(2-(3-hydroxy-5-((5-hydroxy-1,4,5,6-tetrahydropyrimidin-2-yl)amino)benzamido)acetamido]propanoic acid] were, in that order, 2 nM, 0.4 nM and 0.7 nM.
The like results for `Cc1cc(C)cc(C(CC(=O)O)NC(=O)CNC(=O)c2cccc(NC(=N)N)c2)c1` (stereo not drawn) [Example C4, reference compound] were, in that order, 10 nM, 2 nM and 7 nM.
The like results for `N=C(N)Nc1cccc(C(=O)NCC(=O)NC(CC(=O)O)c2cc(F)cc(C(F)(F)F)c2)c1` (stereo not drawn) [Example C9, reference compound] were, in that order, 5 ± 2 nM, 0.4 nM and 8 ± 3 nM.
Turning to `Cc1cc(Cl)cc([C@@H](CC(=O)O)NC(=O)CNC(=O)c2cccc(NC3=NCCN3)c2)c1O` [Example C11, reference compound], the IC50 in test [1] was 16 ± 4 nM; in test [2], 2 nM; in test [3], 33 nM.
The like results for `O=C(O)C[C@H](NC(=O)CNC(=O)c1cc(O)cc(NC2=NCC(O)CN2)c1)c1cc(Br)cc(C(F)(F)F)c1` (stereo partly drawn) [Example 2, (3S)-3-(3-bromo-5-(trifluoromethyl)phenyl)-3-(2-(3-hydroxy-5-((5-hydroxy-1,4,5,6-tetrahydropyrimidin-2-yl)amino)benzamido)acetamido)propanoic acid] were, in that order, 2 nM, 0.4 nM and 0.8 nM.
The like results for `O=C(O)C[C@H](NC(=O)CNC(=O)c1cc(O)cc(NC2=NCC(O)CN2)c1)c1cc(Br)cc(OC(F)(F)F)c1` (stereo partly drawn) [Example 17, (3S)-3-(3-bromo-5-(trifluoromethoxy)phenyl)-3-(2-(3-hydroxy-5-((5-hydroxy-1,4,5,6-tetrahydropyrimidin-2-yl)amino)benzamido)acetamido)propanoic acid] were, in that order, 4 ± 2 nM, 0.6 nM and 1 ± 0.1 nM.
The like results for `O=C(O)C[C@H](NC(=O)CNC(=O)c1cc(O)cc(NC2=NCC(O)CN2)c1)c1cc(Cl)cc(Cl)c1` (stereo partly drawn) [Example 15, (3S)-3-[3,5-dichloro-phenyl)-3-(2-(3-hydroxy-5-((5-hydroxy-1,4,5,6-tetrahydropyrimidin-2-yl)amino)benzamido)acetamido)propanoic acid] were, in that order, 4 ± 1 nM, 0.3 nM and 1 ± 0.3 nM.
Take `O=C(O)C[C@H](NC(=O)CNC(=O)c1cc(O)cc(NC2=NCC(O)CN2)c1)c1cc(Cl)cc(C(F)F)c1` (stereo partly drawn) [Example 3, (3S)-3-[3-chloro-5-(difluoromethyl)phenyl)-3-(2-(3-hydroxy-5-((5-hydroxy-1,4,5,6-tetrahydropyrimidin-2-yl)amino)benzamido)acetamido]propanoic acid]: the figures for the IC50 in test [1], in test [2] and in test [3] were 2 nM, 0.2 nM and 0.5 nM, respectively.

These data come from patent US10035778B2, “Meta-azacyclic amino benzoic acid derivatives as pan integrin antagonists” (Saint Louis University, priority 2015, dated 2018).
